Test results from ChEMBL document CHEMBL5034018, “LXR-Mediated Regulation of Marine-Derived Piericidins Aggravates High-Cholesterol Diet-Induced Cholesterol Metabolism Disorder in Mice” (J Med Chem, 2021).
Active and inactive are the calls of the source. The calls are words filed in the database; no cut-off is given here.

Experiments:
[1] = Hepatotoxicity in renal carcinoma xenografted C57BL/6 mouse assessed as appearance of pyknotic nucleus at 0.8 mg/kg, ip by histological analysis; type: toxicity, organism-based; details: in vivo
[2] = Down regulation of SHP mRNA level in human HepG2 cells at 5 uM by RT-qPCR analysis; type: functional
[3] = Hepatotoxicity in renal carcinoma xenografted C57BL/6 mouse assessed as white discoloration of liver at 0.8 mg/kg, ip; type: toxicity, organism-based; details: in vivo
[4] = Hepatotoxicity in renal carcinoma xenografted C57BL/6 mouse assessed as inflammatory infiltration at 0.8 mg/kg, ip by histological analysis; type: toxicity, organism-based; details: in vivo
[5] = Effect on bile acid homeostasis in HCD-fed C57BL/6 mouse assessed as decrease in Car mRNA expression by RT-qPCR analysis; type: functional; parameters: scale not given: the % may be the effect or the level left
[6] = Effect on bile acid homeostasis in HCD-fed C57BL/6 mouse assessed as inhibition of Cyp7a1 mRNA expression by RT-qPCR analysis; type: functional; parameters: scale not given: the % may be the effect or the level left
Mus musculus [7] = assay: Induction of HCD-induced cholestasis in C57BL/6 mouse assessed as fold increase in plasma total bile acid level at 0.8 mg/kg, ip; type: functional
[8] = Hepatotoxicity in renal carcinoma xenografted C57BL/6 mouse assessed as liver necrosis at 0.8 mg/kg, ip by histological analysis; type: toxicity, organism-based; details: in vivo
Mus musculus [9] = assay: Induction of HCD-induced cholestasis in C57BL/6 mouse assessed as fold increase in liver total cholesterol level at 0.8 mg/kg, ip; type: organism-based; details: in vivo
HepG2 [10] = assay: Induction of apoptosis in human HepG2 cells assessed as live cells at 5 uM measured after 48 hrs by Annexin-V-FITC/propidium iodide staining based flow cytometry (reference value: 84.5 %); type: functional
[11] = Effect on bile acid homeostasis in HCD-fed C57BL/6 mouse assessed as reversal of LXRbeta mRNA upregulation by RT-qPCR analysis; type: functional
[12] = Down regulation of Cyp7a1 mRNA expression level in human HepG2 cells at 5 uM by RT-qPCR analysis; type: functional
[13] = Toxicity in mouse assessed as death at 10 mg/kg, po after 45 mins; type: organism-based; details: in vivo, 0.75 h
[14] = Effect on bile acid homeostasis in HCD-fed C57BL/6 mouse assessed as inhibition of Cyp8b1 mRNA expression by RT-qPCR analysis; type: functional; parameters: scale not given: the % may be the effect or the level left
Mus musculus [15] = assay: Induction of HCD-induced cholestasis in C57BL/6 mouse assessed as fold increase in plasma LDL-cholesterol level at 0.8 mg/kg, ip; type: functional
Mus musculus [16] = species: Mus musculus; assay: Effect on bile acid homeostasis in Chow diet-fed C57BL/6 mouse assessed as change in Car protein expression; type: functional
[17] = Hepatotoxicity in renal carcinoma xenografted C57BL/6 mouse assessed as fold increase in plasma ALT at 0.8 mg/kg, ip; type: toxicity, organism-based; details: in vivo
Mus musculus [18] = species: Mus musculus; assay: Effect on bile acid homeostasis in HCD-fed C57BL/6 mouse assessed as change in Mrp2 mRNA expression by RT-qPCR analysis; type: functional
[19] = Effect on bile acid homeostasis in HCD-fed C57BL/6 mouse assessed as fold increase in LXRalpha mRNA expression by RT-qPCR analysis; type: functional
Mus musculus [20] = assay: Induction of histopathological changes in HCD-fed C57BL/6 mouse assessed as white discoloration of liver at 0.8 mg/kg, ip; type: organism-based; details: in vivo
[21] = Toxicity in renal carcinoma xenografted C57BL/6 mouse assessed as effect on visceral coefficient of lung at 0.8 mg/kg, ip; type: organism-based; details: in vivo
HepG2 [22] = assay: Induction of apoptosis in human HepG2 cells assessed as early apoptotic cells at 5 uM measured after 48 hrs by Annexin-V-FITC/propidium iodide staining based flow cytometry (reference value: 15.5 %); type: functional
[23] = Toxicity in HCD-fed C57BL/6 mouse assessed as fold increase in ALT level at 0.8 mg/kg, ip; type: organism-based; details: in vivo
Mus musculus [24] = assay: Induction of histopathological changes in HCD-fed C57BL/6 mouse assessed as striking subcapsular foci at 0.8 mg/kg, ip; type: organism-based; details: in vivo
Mus musculus [25] = assay: Induction of HCD-induced cholestasis in C57BL/6 mouse assessed as lipid accumulation in liver at 0.8 mg/kg, ip; type: functional, organism-based
Mus musculus [26] = assay: Induction of hepatic pathological changes in normal chow diet fed C57BL/6 mouse at 0.8 mg/kg, ip; type: organism-based; details: in vivo
HepG2 [27] = assay: Induction of mitochondrial dysfunction in human HepG2 cells assessed as increase in ROS production at 0.1 to 5 uM after 48 hrs by flow cytometric analysis; type: cell-based; details: hepg2, 48 h, dose 0.1-5 µM
Mus musculus [28] = species: Mus musculus; assay: Effect on bile acid homeostasis in HCD-fed C57BL/6 mouse assessed as change in Bsep mRNA expression by RT-qPCR analysis; type: functional
[29] = Toxicity in renal carcinoma xenografted C57BL/6 mouse assessed as effect on visceral coefficient of spleen at 0.8 mg/kg, ip; type: organism-based; details: in vivo
HepG2 [30] = assay: Induction of apoptosis in human HepG2 cells assessed as change in caspase 3 protein expression at 1 to 5 uM after 48 hrs; type: functional, cell-based; details: dose 1-5 µM
[31] = Toxicity in HCD-fed C57BL/6 mouse assessed as fold increase in AST level at 0.8 mg/kg, ip; type: organism-based; details: in vivo
Mus musculus [32] = assay: Induction of HCD-induced cholestasis in C57BL/6 mouse assessed as large scale necrotic foci at 0.8 mg/kg, ip; type: functional, organism-based
[33] = Effect on bile acid homeostasis in HCD-fed C57BL/6 mouse assessed as reduction in Ntcp-mRNA expression by RT-qPCR analysis; type: functional; parameters: scale not given: the % may be the effect or the level left
HepG2 [34] = assay: Induction of calcium signal in human HepG2 cells at 5 uM by Fluo-4AM dye based fluorescence assay; type: functional, cell-based
HepG2 [35] = assay: Induction of apoptosis in human HepG2 cells assessed as late apoptotic cells at 5 uM measured after 48 hrs by Annexin-V-FITC/propidium iodide staining based flow cytometry (reference value: 0 %); type: functional
[36] = Effect on bile acid homeostasis in HCD-fed C57BL/6 mouse assessed as decrease in FXR mRNA expression by RT-qPCR analysis; type: functional; parameters: scale not given: the % may be the effect or the level left
[37] = Toxicity in renal carcinoma xenografted C57BL/6 mouse assessed as effect on visceral coefficient of kidney at 0.8 mg/kg, ip; type: organism-based; details: in vivo
HepG2 [38] = assay: Cytotoxicity against human HepG2 cells assessed as reduction in cell viability at < 10 uM incubated for 48 hrs by MTT assay; type: cell-based; details: hepg2, 48 h
[39] = Toxicity in renal carcinoma xenografted C57BL/6 mouse assessed as effect on visceral coefficient of liver at 0.8 mg/kg, ip; type: organism-based; details: in vivo
[40] = Effect on bile acid homeostasis in HCD-fed C57BL/6 mouse assessed as down regulation of Ost-alpha mRNA expression by RT-qPCR analysis; type: functional
[41] = Toxicity in renal carcinoma xenografted C57BL/6 mouse kidney assessed as change in BUN level at 0.8 mg/kg, ip; type: organism-based; details: in vivo
[42] = Toxicity in renal carcinoma xenografted C57BL/6 mouse assessed as change in IL-1beta level at 0.8 mg/kg, ip; type: organism-based; details: in vivo
[43] = Toxicity in renal carcinoma xenografted C57BL/6 mouse assessed as effect on visceral coefficient of heart at 0.8 mg/kg, ip; type: organism-based; details: in vivo

In the case of `C/C=C(\C)[C@H](O[C@@H]1O[C@H](CO)[C@@H](O)[C@H](O)[C@H]1O)[C@H](C)/C=C(C)/C=C/C/C(C)=C/Cc1nc(OC)c(OC)c(O)c1C`, the Activity [1] was “Toxic”, the Activity [2] was 61% and the Activity [3] was “Non-Toxic”. For the same molecule, the Activity [4] was “Toxic”, the Activity [5] was 86% and the Activity [6] was 14%. For the same molecule, the “fold change (FC)” value (Mus musculus [7]) was 3.5, the Activity [8] was “Toxic” and the “fold change (FC)” value (Mus musculus [9]) was 3.8. It also gave an Activity (HepG2 [10]) of 64.3%, an Activity [11] of 72% and an Activity [12] of 38%. The Activity [13] was “Toxic”, the Activity [14] was 3% and the “fold change (FC)” value (Mus musculus [15]) was 2.3. For the same molecule, the Activity (Mus musculus [16]) was “inactive”, the “fold change (FC)” value [17] was 2.3 and the Activity (Mus musculus [18]) was “inactive”. For the same molecule, the “fold change (FC)” value [19] was 1.4, the Activity (Mus musculus [20]) was “Toxic” and the Activity [21] was “Non-Toxic”. The Activity (HepG2 [22]) was 35.7%, the “fold change (FC)” value [23] was 3.8 and the Activity (Mus musculus [24]) was “Toxic”. The Activity (Mus musculus [25]) was “Active”, the Activity (Mus musculus [26]) was “Non-Toxic” and the Activity (HepG2 [27]) was “Non-Toxic”. For the same molecule, the Activity (Mus musculus [28]) was “inactive”, the Activity [29] was “Non-Toxic” and the Activity (HepG2 [30]) was “Toxic”. The “fold change (FC)” value [31] was 2.3, the Activity (Mus musculus [32]) was “Active” and the Activity [33] was 42%. The Activity (HepG2 [34]) was “Active”, the Activity (HepG2 [35]) was 0% and the Activity [36] was 60%. The Activity [37] was “Non-Toxic”, the Activity (HepG2 [38]) was “Non-Toxic” and the Activity [39] was “Non-Toxic”. The Activity [40] was 44%, the Activity [41] was “Non-Toxic” and the Activity [42] was “Non-Toxic”. The Activity [43] was “Non-Toxic”.
In the case of `C/C=C(\C)[C@H](O)[C@H](C)/C=C(C)/C=C/C/C(C)=C/Cc1nc(OC)c(OC)c(O)c1C` [PIERICIDIN A], the Activity [1] was “Toxic”, the Activity [2] was 30% and the Activity [3] was “Non-Toxic”. The Activity [4] was “Toxic”, the Activity [5] was 50% and the Activity [6] was 14%. For the same molecule, the “fold change (FC)” value (Mus musculus [7]) was 2.8, the Activity [8] was “Toxic” and the “fold change (FC)” value (Mus musculus [9]) was 2.7. It also gave an Activity (HepG2 [10]) of 75.4%, an Activity [11] of 72% and an Activity [12] of 26%. The Activity [13] was “Non-Toxic”, the Activity [14] was 2.8% and the “fold change (FC)” value (Mus musculus [15]) was 2.6. For the same molecule, the Activity (Mus musculus [16]) was “inactive”, the “fold change (FC)” value [17] was 2.6 and the Activity (Mus musculus [18]) was “inactive”. For the same molecule, the “fold change (FC)” value [19] was 1.3, the Activity (Mus musculus [20]) was “Toxic” and the Activity [21] was “Non-Toxic”. The Activity (HepG2 [22]) was 24.6%, the “fold change (FC)” value [23] was 3.7 and the Activity (Mus musculus [24]) was “Toxic”. For the same molecule, the Activity (Mus musculus [25]) was “Active”, the Activity (Mus musculus [26]) was “Non-Toxic” and the Activity (HepG2 [27]) was “Non-Toxic”. The Activity (Mus musculus [28]) was “inactive”, the Activity [29] was “Non-Toxic” and the Activity (HepG2 [30]) was “Toxic”. For the same molecule, the “fold change (FC)” value [31] was 2.3, the Activity (Mus musculus [32]) was “Active” and the Activity [33] was 60%. For the same molecule, the Activity (HepG2 [34]) was “Active”, the Activity (HepG2 [35]) was 0% and the Activity [36] was 58%. The Activity [37] was “Non-Toxic”, the Activity (HepG2 [38]) was “Non-Toxic” and the Activity [39] was “Non-Toxic”. For the same molecule, the Activity [40] was 10%, the Activity [41] was “Non-Toxic” and the Activity [42] was “Non-Toxic”. For the same molecule, the Activity [43] was “Non-Toxic”.
